The text below walks through data of patent US12331035B2, “Bicyclic compound and use thereof” (SK BIOPHARMACEUTICALS CO., LTD., priority 2019, dated 2025).

pIC50: −log10 of the molar value. Where a name gives a salt, the structure may show the parent alone.

T1 sequence (O14744 2-637 limits assumed): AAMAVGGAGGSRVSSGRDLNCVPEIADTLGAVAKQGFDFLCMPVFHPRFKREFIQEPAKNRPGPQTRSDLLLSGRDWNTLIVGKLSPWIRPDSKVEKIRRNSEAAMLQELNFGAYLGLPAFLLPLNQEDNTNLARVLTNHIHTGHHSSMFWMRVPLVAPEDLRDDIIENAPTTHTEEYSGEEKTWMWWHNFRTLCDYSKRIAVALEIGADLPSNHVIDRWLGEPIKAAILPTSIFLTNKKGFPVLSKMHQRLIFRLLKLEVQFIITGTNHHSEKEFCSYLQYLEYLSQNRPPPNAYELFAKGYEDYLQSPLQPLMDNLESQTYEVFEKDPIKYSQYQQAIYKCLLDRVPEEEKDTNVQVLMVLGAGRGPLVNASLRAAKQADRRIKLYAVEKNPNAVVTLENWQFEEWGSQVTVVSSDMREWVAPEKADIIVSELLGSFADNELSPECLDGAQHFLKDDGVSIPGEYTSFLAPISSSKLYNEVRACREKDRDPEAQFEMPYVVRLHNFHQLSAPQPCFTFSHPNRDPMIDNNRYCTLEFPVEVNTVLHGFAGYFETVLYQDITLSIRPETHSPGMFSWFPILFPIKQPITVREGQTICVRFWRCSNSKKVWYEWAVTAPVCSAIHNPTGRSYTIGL
T1 sequence (Q9BQA1 2-342 partner limits assumed): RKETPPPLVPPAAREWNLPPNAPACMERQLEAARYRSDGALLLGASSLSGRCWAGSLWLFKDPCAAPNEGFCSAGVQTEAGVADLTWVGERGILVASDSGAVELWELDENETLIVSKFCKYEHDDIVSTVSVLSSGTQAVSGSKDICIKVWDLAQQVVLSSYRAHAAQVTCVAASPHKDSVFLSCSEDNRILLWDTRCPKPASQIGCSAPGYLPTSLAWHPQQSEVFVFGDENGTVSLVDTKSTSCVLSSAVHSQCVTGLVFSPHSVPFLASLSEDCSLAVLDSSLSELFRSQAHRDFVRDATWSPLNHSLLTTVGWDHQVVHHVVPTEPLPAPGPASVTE

This test has as its target T1, PRMT5-MEP50 enzyme complex (Homo sapiens, UniProt O14744).
T1 construct: purchased BPS Bioscience (USA) 51045
Put plainly: In vitro PRMT5 enzyme activity assay (methylation of histone H4 arginine H4R3, ELISA absorbance at 450 nm). The test is classed as biochemical. The conditions noted are these: S-adenosylmethionine, histone H4 peptide, 2 hours at room temperature, 8 points 10 μM to 0.128 nM. The essentials: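 Human PRMT5-MEP50 (5 μg/mL working stock) with 2 μM SAM stock on histone H4 (1-20) peptide-coated plates, compound 8-point 1:5 series from 10 μM, 2 h at room temperature. H4R3 methylation detected by antibody/HRP ELISA, absorbance 450 nm; IC50 calculated.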
As for `COCCN1CCN(c2ccc3c(c2)CCN(C[C@H](O)CN2CCc4ccccc4C2)C3=O)CC1` [Example 109, 2-[(2R)-3-(3,4-dihydro-1H-isoquinolin-2-yl)-2-hydroxy-propyl]-6-[4-(2-methoxyethyl)piperazin-1-yl]-3,4-dihydroisoquinolin-1-one], the pIC50 – broadly, −log10 of the IC50, conventionally taken in molar units – is 6.00 to 7.00. With `CN(C)C1CCN(c2ccc3c(c2)CCN(C[C@H](O)CN2CCc4ccccc4C2)C3=O)CC1` [Example 110, 2-[(2R)-3-(3,4-dihydro-1H-isoquinolin-2-yl)-2-hydroxy-propyl]-6-[4-(dimethylamino)-1-piperidyl]-3,4-dihydroisoquinolin-1-one], the pIC50 is 6.00 to 7.00. In turn, `CN(C)C1CCN(c2ccc3c(c2)C(C)(C)CN(C[C@H](O)CN2CCc4ccccc4C2)C3=O)CC1` [Example 111, 2-[(2R)-3-(3,4-dihydro-1H-isoquinolin-2-yl)-2-hydroxy-propyl]-6-[4-(dimethylamino)-1-piperidyl]-4,4-dimethyl-3H-isoquinolin-1-one] gave a pIC50 of 6.00 to 7.00.

With `CC1(C)CN(C[C@H](O)CN2CCc3ccccc3C2)C(=O)c2ccc(N3CCOCC3)cc21` [Example 112, 2-[(2R)-3-(3,4-dihydro-1H-isoquinolin-2-yl)-2-hydroxy-propyl]-4,4-dimethyl-6-morpholino-3H-isoquinolin-1-one], the pIC50 is 6.00 to 7.00. In turn, `O=C1c2ccc(OCCN3CCOCC3)cc2CCN1C[C@H](O)CN1CCc2ccccc2C1` [Example 113, 2-[(2R)-3-(3,4-dihydro-1H-isoquinolin-2-yl)-2-hydroxy-propyl]-6-(2-morpholinoethoxy)-3,4-dihydroisoquinolin-1-one] showed a pIC50 of 7.00 to 9.00. The same measure for `CCN1CCC(Oc2ccc3c(c2)CCN(C[C@H](O)CN2CCc4ccccc4C2)C3=O)CC1` [Example 114, 2-[(2R)-3-(3,4-dihydro-1H-isoquinolin-2-yl)-2-hydroxy-propyl]-6-[(1-ethyl-4-piperidyl)oxy]-3,4-dihydroisoquinolin-1-one]: 6.00 to 7.00. Take `CCN1CCC(COc2ccc3c(c2)CCN(C[C@H](O)CN2CCc4ccccc4C2)C3=O)CC1` [Example 115, 2-[(2R)-3-(3,4-dihydro-1H-isoquinolin-2-yl)-2-hydroxy-propyl]-6-[(1-ethyl-4-piperidyl)methyloxy]-3,4-dihydroisoquinolin-1-one]: the pIC50 is 6.00 to 7.00.

`CN(C)C1CCCN(c2ccc3c(c2)CCN(C[C@H](O)CN2CCc4ccccc4C2)C3=O)C1` (stereo partly drawn) [Example 116, 2-[(2R)-3-(3,4-dihydro-1H-isoquinolin-2-yl)-2-hydroxy-propyl]-6-[3-(dimethylamino)-1-piperidyl]-3,4-dihydroisoquinolin-1-one] showed a pIC50 of 6.00 to 7.00. With `CN(C)CC1CCN(c2ccc3c(c2)CCN(C[C@H](O)CN2CCc4ccccc4C2)C3=O)CC1` [Example 117, 2-[(2R)-3-(3,4-dihydro-1H-isoquinolin-2-yl)-2-hydroxy-propyl]-6-[4-[(dimethylamino)methyl]-1-piperidyl]-3,4-dihydroisoquinolin-1-one], the negative logarithm of the IC50 (pIC50) was 6.00 to 7.00. The same measure for `CCN(CC)C1CCN(c2ccc3c(c2)CCN(C[C@H](O)CN2CCc4ccccc4C2)C3=O)CC1` [Example 118, 6-[4-(diethylamino)-1-piperidyl]-2-[(2R)-3-(3,4-dihydro-1H-isoquinolin-2-yl)-2-hydroxy-propyl]-3,4-dihydroisoquinolin-1-one]: 6.00 to 7.00; for `CN(C)CCOC1CCN(c2ccc3c(c2)CCN(C[C@H](O)CN2CCc4ccccc4C2)C3=O)CC1` [Example 119, 2-[(2R)-3-(3,4-dihydro-1H-isoquinolin-2-yl)-2-hydroxy-propyl]-6-[4-[2-(dimethylamino)ethoxy]-1-piperidyl]-3,4-dihydroisoquinolin-1-one]: 6.00 to 7.00.

`COCCN(C)C1CCN(c2ccc3c(c2)CCN(C[C@H](O)CN2CCc4ccccc4C2)C3=O)CC1` [Example 120, 2-[(2R)-3-(3,4-dihydro-1H-isoquinolin-2-yl)-2-hydroxy-propyl]-6-[4-[2-methoxyethyl(methyl)amino]-1-piperidyl]-3,4-dihydroisoquinolin-1-one]: the pIC50 is 7.00 to 9.00. The same measure for `O=C1c2ccc(N3CCN(C4COC4)CC3)cc2CCN1C[C@H](O)CN1CCc2ccccc2C1` [Example 121, 2-[(2R)-3-(3,4-dihydro-1H-isoquinolin-2-yl)-2-hydroxy-propyl]-6-[4-(oxetan-3-yl)piperazin-1-yl]-3,4-dihydroisoquinolin-1-one]: 6.00 to 7.00. To `O=C1c2ccc(N3CCN(C4CCOCC4)CC3)cc2CCN1C[C@H](O)CN1CCc2ccccc2C1` [Example 122, 2-[(2R)-3-(3,4-dihydro-1H-isoquinolin-2-yl)-2-hydroxy-propyl]-6-(4-tetrahydropyran-4-ylpiperazin-1-yl)-3,4-dihydroisoquinolin-1-one] belongs 6.00 to 7.00. To `CCN(CC)C1CCN(c2ccc3c(c2)C(C)(C)CN(C[C@H](O)CN2CCc4ccccc4C2)C3=O)CC1` [Example 123, 6-[4-(diethylamino)-1-piperidyl]-2-[(2R)-3-(3,4-dihydro-1H-isoquinolin-2-yl)-2-hydroxy-propyl]-4,4-dimethyl-3H-isoquinolin-1-one] belongs 6.00 to 7.00.

Compound `CC1(C)CN(C[C@H](O)CN2CCc3ccccc3C2)C(=O)c2ccc(N3CCC(N4CCCC4)CC3)cc21` [Example 124, 2-[(2R)-3-(3,4-dihydro-1H-isoquinolin-2-yl)-2-hydroxy-propyl]-4,4-dimethyl-6-(4-pyrrolidin-1-yl-1-piperidyl)-3H-isoquinolin-1-one] gave a pIC50 of 7.00 to 9.00. Compound `CC1(C)CN(C[C@H](O)CN2CCc3ccccc3C2)C(=O)c2ccc(N3CCN(C=O)CC3)cc21` [Example 125, 4-[2-[(2R)-3-(3,4-dihydro-1H-isoquinolin-2-yl)-2-hydroxy-propyl]-4,4-dimethyl-1-oxo-3H-isoquinolin-6-yl]piperazine-1-carbaldehyde] gave a pIC50 of 6.00 to 7.00.

With `CN(C)C1CCN(c2ccc3c(c2)C(C)(C)CN(C[C@H](O)CN2CCc4ccccc4C2)C3=O)CC1` [Example 126, 2-[(2R)-3-(3,4-dihydro-1H-isoquinolin-2-yl)-2-hydroxy-propyl]-6-[4-(dimethylamino)-1-piperidyl]-4,4-dimethyl-3H-isoquinolin-1-one; dihydrochloride], the pIC50 is 7.00 to 9.00.

`O=C1c2ccc(N3CCN(C4CCOC4)CC3)cc2CCN1C[C@H](O)CN1CCc2ccccc2C1` (stereo partly drawn) [Example 127, 2-[(2R)-3-(3,4-dihydro-1H-isoquinolin-2-yl)-2-hydroxy-propyl]-6-(4-tetrahydrofuran-3-ylpiperazin-1-yl)-3,4-dihydroisoquinolin-1-one] gave a negative-log IC50 (pIC50) of 7.00 to 9.00. As to `CC(=O)N1CCN(c2cc(F)c3c(c2)CCN(C[C@H](O)CN2CCc4ccccc4C2)C3=O)CC1` [Example 128, 6-(4-acetylpiperazin-1-yl)-2-[(2R)-3-(3,4-dihydro-1H-isoquinolin-2-yl)-2-hydroxy-propyl]-8-fluoro-3,4-dihydroisoquinolin-1-one], the pIC50 is 6.00 to 7.00. The same measure for `CC(=O)N1CCN(c2ccc3c(c2)CCN(C(C)C(O)CN2CCc4ccccc4C2)C3=O)CC1` (stereo not drawn) [Example 129, 6-(4-acetylpiperazin-1-yl)-2-[3-(3,4-dihydro-1H-isoquinolin-2-yl)-2-hydroxy-1-methyl-propyl]-3,4-dihydroisoquinolin-1-one]: 6.00 to 7.00.
